{"source": "patent US20240148757A1", "about": "“USE OF DIHYDROOROTATE DEHYDROGENASE (DHODH) INHIBITORS TO TARGET FERROPTOSIS IN CANCER THERAPY” (BOARD OF REGENTS, THE UNIVERSITY OF TEXAS SYSTEM, priority 2021, published 2024)", "key": {"solid tumors": {"tested_on": "solid tumors", "conditions": "oncology clinical trials; cited from earlier work"}, "[1]": {"tested_on": "GPX4^low NCI-H226 xenografts", "assay": "NCI-H226 xenograft model", "format": "in vivo, athymic nude mice", "conditions": "brequinar 30 mg/kg intraperitoneally every three days", "protocol": "All the xenograft experiments were performed in accordance with a protocol approved by the Institutional Animal Care and Use Committee and Institutional Review Board at The University of Texas MD Anderson Cancer Center. The study is compliant with all relevant ethical regulations regarding animal research. Female 4- to 6-week-old athymic nude mice (Foxn1^nu/Foxn1^nu) were purchased from the Experimental Radiation Oncology Breeding Core Facility at MD Anderson Cancer Center and housed in the Animal Care Facility at the Department of Veterinary Medicine and Surgery at MD Anderson. Cancer cell lines were suspended and counted in cold phosphate-buffered saline (PBS), and 5×10^6 HT-1080 or 1×10^7 NCI-H226 cells were injected into mice subcutaneously. When the tumor reached 50-100 mm^3, the mice were assigned randomly into different treatment groups. Brequinar or sulfasalazine was dissolved in dimethyl sulfoxide (DMSO) and diluted in PBS. Brequinar was intraperitoneally injected into mice at a dose of 30 mg/kg every three days. Sulfasalazine was intraperitoneally injected daily at a dose of 100 mg/kg. Liproxstatin-1 diluted in PBS was intraperitoneally injected daily at a dose of 10 mg/kg. […] The tumor volume was measured every 3 days until the endpoint and calculated according to the equation volume=length×width^2×½."}, "[2]": {"tested_on": "GPX4^low patient-derived xenografts (PDXs)", "assay": "GPX4^low patient-derived xenograft model", "format": "in vivo, NSG mice", "conditions": "brequinar 30 mg/kg intraperitoneally every three days", "text": "PDXs were generated in accordance with protocols approved by the Institutional Review Board at The University of Texas MD Anderson Cancer Center. Informed consent was obtained from the patients and the study is compliant with all relevant ethical regulations regarding research involving human participants. All the NOD scid gamma (NSG) mice were purchased from the Experimental Radiation Oncology Breeding Core Facility at MD Anderson Cancer Center and housed in the Animal Care Facility at the Department of Veterinary Medicine and Surgery at MD Anderson Cancer Center. PDX model used in this study was originally obtained from lung cancer PDX platform at MD Anderson Cancer Center. PDX experiments were performed as previously described (Liu, X., et al., Nat Cell Biol 22, 476-486 (2020)). Briefly, PDX tumors in cold DMEM media were minced into fragments 1-2 mm^3 in volume. Then each PDX tumor fragment was subcutaneously inoculated into the dorsal flank of NSG mice. When the tumors reached 50-100 mm 3 in volume, the mice were assigned randomly into different treatment groups for the treatment of brequinar, sulfasalazine, and/or liproxstatin-1 as described under cell line-derived xenograft model. The tumor volume was measured every 3 days until the endpoint and calculated according to the equation volume=length×width^2×½."}, "GPX4-knockdown tumors": {"tested_on": "GPX4-knockdown tumors", "assay": "GPX4-knockdown HT-1080 xenograft model", "format": "in vivo, athymic nude mice", "protocol": "(§1) Fresh tumor tissues were fixed in 10% neutral buffered formalin overnight, washed once with PBS, and stored in 70% ethanol at 4° C. The tissues were dehydrated and embedded in paraffin by the Research Histology Core Laboratory (MD Anderson Cancer Center) according to standard protocols. Embedded tissues were sectioned at a thickness of 5 μm for H&E or immunohistochemistry (IHC) analysis. IHC analysis was performed as previously described (Gan, B., et al., Cancer Cell 18, 472-484 (2010); Gan, B., et al., J Cell Biol 175, 121-133 (2006)). Briefly, the primary antibodies, including ki-67 (1:500, 9027s, Cell Signaling Technology), cleaved-caspase 3 (1:500, 9661s, Cell Signaling Technology), or 4-HNE (1:400, ab46545, Abcam) were incubated overnight at 4° C. Staining was performed using the Vectastain elite ABC kit and DAB peroxidase substrate kit (Vector laboratories). Images were randomly taken from the […] (five images per tumor) at ×200 magnification using an Olympus BX43 microscope. All the xenograft experiments were performed in accordance with a protocol approved by the Institutional Animal Care and Use Committee and Institutional Review Board at The University of Texas MD Anderson Cancer Center. The study is compliant with all relevant ethical regulations regarding animal research. Female 4- to 6-week-old athymic nude mice (Foxn1^nu/Foxn1^nu) were purchased from the Experimental Radiation Oncology Breeding Core Facility at MD Anderson Cancer Center and housed in the Animal Care Facility at the Department of Veterinary Medicine and Surgery at MD Anderson. Cancer cell lines were suspended and counted in cold phosphate-buffered saline (PBS), and 5×10^6 HT-1080 or 1×10^7 NCI-H226 cells were injected into mice subcutaneously. When the tumor reached 50-100 mm^3, the mice were assigned randomly into different treatment groups. Brequinar or sulfasalazine was dissolved in dimethyl sulfoxide (DMSO) and diluted in PBS. Brequinar was intraperitoneally injected into mice at a dose of 30 mg/kg every three days. Sulfasalazine was intraperitoneally injected daily at a dose of 100 mg/kg. Liproxstatin-1 diluted in PBS was intraperitoneally injected daily at a dose of 10 mg/kg. The daily injection of brequinar, sulfasalazine, or liproxstatin-1 was continued until the endpoint as indicated in the corresponding figures. The tumor volume was measured every 3 days until the endpoint and calculated according to the equation volume=length×width^2×½."}, "HT-1080 xenograft tumors": {"tested_on": "HT-1080 xenograft tumors", "assay": "HT-1080 cell line-derived xenograft model", "format": "in vivo, athymic nude mice", "protocol": "as §1"}, "GPX4^high HT-1080 cells": {"tested_on": "GPX4^high HT-1080 cells", "assay": "Cell viability / cell death (ferroptosis) in HT-1080 cells", "format": "cell-based, human", "conditions": "wild-type (WT) cells, BQR 500 μM, 4 hours", "protocol": "Briefly, cells were seeded onto 96-well plates at a density of 2×10^4 per well. The next day, cells were treated with GPX4 or DHODH inhibitors for 4 hours. Subsequently, cells exposed to 10 μl CCK-8 reagent (100 μl medium per well) for 1 hour at 37° C., 5% CO2 in an incubator. The absorbance at a wavelength of 450 nm was determined using a FLUOstar Omega microplate reader (BMG Labtech).\nFor propidium iodide-staining, cells were seeded at a density of 50% confluence into 12-well plates. The next day, cells were treated with different reagents. To measure cell death, the cells were collected (including floating dead cells), stained with 5 μg/ml propidium iodide and the percentage of the propidium iodide-positive dead cell population was analyzed using the flow cytometer BD Accuri C6 (BD Biosciences) and an FL2 detector. A minimum of 10,000 single cells were analyzed per well and all experiments were carried out at least in triplicate."}, "DHODH": {"molecular_target": "DHODH (Homo sapiens, UniProt Q02127)", "sequence (Q02127 whole entry, species assumed)": "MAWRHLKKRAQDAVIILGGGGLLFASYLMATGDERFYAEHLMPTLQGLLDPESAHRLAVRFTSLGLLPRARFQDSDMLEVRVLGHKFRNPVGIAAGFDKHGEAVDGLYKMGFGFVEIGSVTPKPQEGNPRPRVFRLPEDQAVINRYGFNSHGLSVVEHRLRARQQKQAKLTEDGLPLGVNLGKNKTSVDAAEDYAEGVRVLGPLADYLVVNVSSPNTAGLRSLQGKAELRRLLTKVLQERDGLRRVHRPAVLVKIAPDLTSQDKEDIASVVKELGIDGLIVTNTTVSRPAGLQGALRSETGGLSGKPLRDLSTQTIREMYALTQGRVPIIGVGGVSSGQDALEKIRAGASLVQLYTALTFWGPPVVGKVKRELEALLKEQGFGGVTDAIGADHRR", "conditions": "cited from earlier work"}, "[3]": {"conditions": "brequinar 30 mg/kg intraperitoneally every three days"}}}
{"molecule": "Cc1c(-c2ccc(-c3ccccc3F)cc2)nc2ccc(F)cc2c1C(=O)O", "note": "[brequinar]", "values": [{"measurement": "efficacy against solid tumors", "setting": "solid tumors", "value": "lacks broad efficacy against solid tumors"}, {"measurement": "tolerability in patients", "setting": "solid tumors", "value": "well-tolerated"}, {"measurement": "tumor growth", "setting": "[1]", "value": "significantly suppressed"}, {"measurement": "tumor growth", "setting": "[2]", "value": "significantly suppressed"}, {"measurement": "4-HNE staining (lipid peroxidation marker)", "setting": "GPX4-knockdown tumors; GPX4-knockdown tumors", "value": "dramatically increased"}, {"measurement": "cleaved caspase-3 or Ki67 staining", "setting": "GPX4-knockdown tumors; GPX4-knockdown xenograft samples", "value": "did not affect"}, {"measurement": "tumor growth (sensitivity to DHODH inhibition)", "setting": "GPX4-knockdown tumors; [3]", "value": "significantly sensitized"}, {"measurement": "tumor growth", "setting": "HT-1080 xenograft tumors; [3]", "value": "did not affect the growth"}, {"measurement": "4-HNE staining (lipid peroxidation marker)", "setting": "HT-1080 xenograft tumors; control tumors", "value": "but not in control tumors"}, {"measurement": "cleaved caspase-3 or Ki67 staining", "setting": "HT-1080 xenograft tumors; control xenograft samples", "value": "did not affect"}, {"measurement": "effect on RSL3-induced ferroptosis", "setting": "GPX4^high HT-1080 cells", "value": "promotes RSL3-induced ferroptosis"}, {"measurement": "DHODH inhibitor potency and specificity", "setting": "DHODH", "value": "potent and specific"}]}
